# Literature values in patent US8846744B2, “Pharmaceutical compositions of co-crystals of tramadol and coxibs” (Laboratorios del Dr. Esteve, S.A., priority 2010, dated 2014).
compound,measurement,value
"Cc1ccc(-c2cc(C(F)(F)F)nn2-c2ccc(S(N)(=O)=O)cc2)cc1 [Celecoxib, 4-[5-(4-methylphenyl)-3-(trifluoromethyl)pyrazol-1-yl]benzenesulfonamide]",solubility in water,practically insoluble
